A word on the Emax: it is the maximal effect, on the per cent scale that the assay sets.

Experimental findings from publication PMC5041959, “A high-content EMT screen identifies multiple receptor tyrosine kinase inhibitors with activity on TGFβ receptor” (Oncotarget, 2016) are described below.

The test system of assay [1] is SMAD3 phosphorylation (TGFBR activity). Kind of assay: Quantification of SMAD3 phosphorylation in TGFβ-treated NMuMG cells (immunoblot, LI-COR). To be noted: one day TGFβ plus inhibitor. It is filed as cell-based, murine. The protocol: NMuMG cells plated the day before were treated for one day with TGFβ and DMSO or an inhibitor as described in the figure legends. Cells were washed with PBS and lyzed in RIPA buffer (150 mM NaCl, 2 mM MgCl, 2 mM CaCl2, 0.5% Na-deoxycholate, 10% glycerol, 1% NP-40, 0.1% SDS, 50 mM Tris pH8 supplementary with 1 mM DTT, 10 mM NaF, 1 mM sodium orthovanadate and protease inhibitor cocktail (Roche)). The proteins were resolved using SDS-PAGE and transferred to PVDF membrane. For quantitative analysis of SMAD phosphorylation, the membrane was probed with p-SMAD2/3 and GAPDH specific primary antibodies followed by fluorescent secondary antibodies (LI-COR Biosciences). The signal was captured and quantified with the Odyssey CLx Imaging system and ImageJ software form 3 independent experiments.
(In general: A western blot detects proteins with antibodies after separation by electrophoresis.)

The test system of the next assay is NMuMG cells. Kind of assay: High-content microscopy EMT screen in TGFβ-treated NMuMG cells (FA, SF, FN, cell count). The class given is cell-based, murine.
The subject of a further assay is Py2T cells. Kind of assay: High-content microscopy EMT assay in TGFβ-treated Py2T breast cancer cells. It is filed as cell-based, murine. To be noted: Py2T; for Emax (maximal effect on cell count): compared to reference 10 μM SB-431542 = 100%.
The next assay relates to ROCK. Kind of assay: ROCK cellular assay (MLC Thr18/Ser19 phosphorylation ELISA in A7r5 cells). The class given is cell-based, rat. To be noted: 90 min compound.

The structures appear in SMILES notation. Like-named read-outs stand apart in the source and are kept apart here.

As to `O=c1[nH]c(=O)n([C@H]2C[C@H](O)[C@@H](CO)O2)cc1I` [Idoxuridine], in assay [1], the “SMAD3 phosphorylation (p-SMAD3/GAPDH)” value was “unchanged”. Besides, the IC50 is 948 nM in the assay on NMuMG cells (Mus musculus, 96 h, NMuMG, TGFβ1 2 ng/ml plus compound, 4 days, parameter decreased by 50%, read-out: FN IC50 (fibronectin patch formation)); 1170 nM with NMuMG cells (Mus musculus, 96 h, NMuMG, TGFβ1 2 ng/ml plus compound, 4 days, parameter decreased by 50%, read-out: SF IC50 (stress fibers)); over 25000 nM in the assay with NMuMG cells (Mus musculus, NMuMG, cell count decreased by 50% compared to DMSO control, read-out: Tox IC50); 291 nM in the assay with NMuMG cells (Mus musculus, read-out: CCI IC50 (cell count increase)); 6350 nM in the assay with Py2T cells (Mus musculus, cell count decreased by 50% compared to DMSO control, read-out: Tox IC50). In addition, the Emax with NMuMG cells (Mus musculus, read-out: Emax (maximal effect on cell count)) was 12.9%. Also, the “FA IC50 (focal adhesions)” value in the assay on Py2T cells (TGFβ plus compound, 4 days) is “n.m”. Further, the “FN IC50 (fibronectin patches)” value in the assay with Py2T cells (TGFβ plus compound, 4 days) is on record as “n.m”. For the same molecule, the “SF IC50 (stress fibers)” value with Py2T cells (TGFβ plus compound, 4 days) is given as “n.m”. In addition, the “Emax (maximal effect on cell count)” value with Py2T cells was “n.m”.

As to `C[C@@H](N)[C@H]1CC[C@H](C(=O)Nc2ccncc2)CC1.Cl.Cl` [Y-27632 2HCl], the “SMAD3 phosphorylation (p-SMAD3/GAPDH)” value in assay [1] is “unchanged”. The IC50 was 430 nM in the assay on ROCK; 2650 nM with NMuMG cells (NMuMG, TGFβ1 2 ng/ml plus compound, 4 days, parameter decreased by 50%, read-out: FA IC50 (focal adhesion formation)); 1190 nM in the assay on NMuMG cells (NMuMG, TGFβ1 2 ng/ml plus compound, 4 days, parameter decreased by 50%, read-out: FN IC50 (fibronectin patch formation)); 1310 nM in the assay on NMuMG cells (NMuMG, TGFβ1 2 ng/ml plus compound, 4 days, parameter decreased by 50%, read-out: SF IC50 (stress fibers)); over 25000 nM in the assay on NMuMG cells (NMuMG, cell count decreased by 50% compared to DMSO control, read-out: Tox IC50); 1110 nM in the assay with NMuMG cells (NMuMG, cell count increased by 50% compared to 100% with 10 μM SB-431542, read-out: CCI IC50 (cell count increase)). For the same molecule, the IC50 was 1720 nM in the assay with NMuMG cells (NMuMG, mean of IC50 values obtained for FA, SF, FN, read-out: EMT (FA/SF/FN) combined IC50); 2150 nM in the assay on Py2T cells (TGFβ plus compound, 4 days, read-out: FA IC50 (focal adhesions)); 4830 nM in the assay with Py2T cells (TGFβ plus compound, 4 days, read-out: FN IC50 (fibronectin patches)); 1710 nM in the assay on Py2T cells (TGFβ plus compound, 4 days, read-out: SF IC50 (stress fibers)); over 25000 nM with Py2T cells (cell count decreased by 50% compared to DMSO control, read-out: Tox IC50); 770 nM with Py2T cells (compared to 10 μM SB-431542, read-out: CCI IC50 (cell count increase)). The “Emax (maximal effect on cell count)” value was found to be 17.6% in the assay on NMuMG cells (NMuMG, compared to reference 10 μM SB-431542 = 100%) and 43.8% with Py2T cells.
